Source: ChEMBL document CHEMBL1201861, “Genomics of Drug Sensitity in Cancer screening data, Wellcome Trust Sanger Institute”
pIC50: −log10 of the molar value.

Tests used:
Assay in all cases: cells
Type in all cases: functional, cell-based, Homo sapiens
[1] = system: COR-L23; settings: Homo sapiens, COR-L23;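 note: cell viability assay measuring how strongly compounds suppress growth of COR-L23 cells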
Description: SANGER: Inhibition of human COR-L23 cell growth in a cell viability assay.

[2] = system: D-566MG; settings: Homo sapiens, D-566MG
[3] = system: DOK; settings: Homo sapiens, DOK;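 note: cell viability assay read-out, values reflect inhibition of cell growth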
Description: SANGER: Inhibition of human DOK cell growth in a cell viability assay.

[4] = system: GCT; settings: Homo sapiens, GCT;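 note: GCT cell line proliferation inhibition, read out with a cell viability assay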
Description: SANGER: Inhibition of human GCT cell growth in a cell viability assay.

[5] = system: HCC1806; settings: Homo sapiens, HCC1806;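 note: growth inhibition of the cancer cell line, determined with a cell viability assay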
Description: SANGER: Inhibition of human HCC1806 cell growth in a cell viability assay.

[6] = system: HLE; settings: Homo sapiens, HLE;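 note: growth inhibition of human HLE cells, read out by a cell viability assay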
Description: SANGER: Inhibition of human HLE cell growth in a cell viability assay.

[7] = system: HO-1-N-1; settings: Homo sapiens, HO-1-N-1;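 note: growth inhibition of human HO-1-N-1 cells, read out with a cell viability assay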
Description: SANGER: Inhibition of human HO-1-N-1 cell growth in a cell viability assay.

[8] = system: HuP-T4; settings: Homo sapiens, HuP-T4;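 note: cell viability assay measuring how much HuP-T4 cell growth is inhibited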
Description: SANGER: Inhibition of human HuP-T4 cell growth in a cell viability assay.

[9] = system: KYSE-410; settings: Homo sapiens, KYSE-410;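 note: growth inhibition of KYSE-410 cells, measured through a cell viability readout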
Description: SANGER: Inhibition of human KYSE-410 cell growth in a cell viability assay.

[10] = system: LU-99A; settings: Homo sapiens, LU-99A;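 note: growth inhibition of LU-99A cells, read out with a cell viability assay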
Description: SANGER: Inhibition of human LU-99A cell growth in a cell viability assay.

[11] = system: M059J; settings: Homo sapiens, M059J;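 note: growth inhibition of M059J cells, read out with a cell viability assay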
Description: SANGER: Inhibition of human M059J cell growth in a cell viability assay.

[12] = system: MDA-MB-453; settings: Homo sapiens, MDA-MB-453
Description: SANGER: Inhibition of human MDA-MB-453 cell growth in a cell viability assay.

[13] = system: NCI-H2030; settings: Homo sapiens, NCI-H2030;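 note: growth inhibition of human NCI-H2030 cells, read out by a cell viability assay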
Description: SANGER: Inhibition of human NCI-H2030 cell growth in a cell viability assay.

[14] = system: NCI-H2405; settings: Homo sapiens, NCI-H2405;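 note: growth inhibition of the human cell line, read out with a cell viability assay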
Description: SANGER: Inhibition of human NCI-H2405 cell growth in a cell viability assay.

[15] = system: NCI-H441; settings: Homo sapiens, NCI-H441;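 note: growth inhibition of NCI-H441 cells, read out with a cell viability assay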
Description: SANGER: Inhibition of human NCI-H441 cell growth in a cell viability assay.

[16] = system: NCI-H630; settings: Homo sapiens, NCI-H630;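 note: growth inhibition of NCI-H630 cells, read out with a cell viability assay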
Description: SANGER: Inhibition of human NCI-H630 cell growth in a cell viability assay.

[17] = system: NUGC-3; settings: Homo sapiens, NUGC-3;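 note: growth inhibition of human NUGC-3 cells, read out with a cell viability assay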
Description: SANGER: Inhibition of human NUGC-3 cell growth in a cell viability assay.

[18] = system: OVCAR-3; settings: Homo sapiens, OVCAR-3;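 note: growth inhibition of human OVCAR-3 cells, determined by a cell viability assay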
Description: SANGER: Inhibition of human OVCAR-3 cell growth in a cell viability assay.

[19] = system: RD; settings: Homo sapiens, RD
Description: SANGER: Inhibition of human RD cell growth in a cell viability assay.

[20] = system: RERF-LC-MS; settings: Homo sapiens, RERF-LC-MS;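 note: growth inhibition of human RERF-LC-MS cells, read out by a cell viability assay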
Description: SANGER: Inhibition of human RERF-LC-MS cell growth in a cell viability assay.

[21] = system: RPMI-7951; settings: Homo sapiens, RPMI-7951
Description: SANGER: Inhibition of human RPMI-7951 cell growth in a cell viability assay.

[22] = system: SAS; settings: Homo sapiens, SAS;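 note: growth inhibition of SAS cells, read out with a cell viability assay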
Description: SANGER: Inhibition of human SAS cell growth in a cell viability assay.

[23] = system: SCC-25; settings: Homo sapiens, SCC-25;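 note: growth inhibition of SCC-25 cells, measured with a cell viability assay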
Description: SANGER: Inhibition of human SCC-25 cell growth in a cell viability assay.

[24] = system: SK-N-AS; settings: Homo sapiens, SK-N-AS;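 note: growth inhibition of human SK-N-AS cells, measured with a cell viability assay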
Description: SANGER: Inhibition of human SK-N-AS cell growth in a cell viability assay.

[25] = system: SW1463; settings: Homo sapiens, SW1463;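 note: growth inhibition of SW1463 cells, determined with a cell viability assay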
Description: SANGER: Inhibition of human SW1463 cell growth in a cell viability assay.

[26] = system: SW1710; settings: Homo sapiens, SW1710;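 note: growth inhibition of SW1710 cells, determined with a cell viability assay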
Description: SANGER: Inhibition of human SW1710 cell growth in a cell viability assay.

[27] = system: SW48; settings: Homo sapiens, SW48;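 note: growth inhibition of SW48 cells, read out with a cell viability assay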
Description: SANGER: Inhibition of human SW48 cell growth in a cell viability assay.

[28] = system: SW948; settings: Homo sapiens, SW948;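 note: growth inhibition of SW948 cells, read out with a cell viability assay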
Description: SANGER: Inhibition of human SW948 cell growth in a cell viability assay.

[29] = system: 23132-87; settings: Homo sapiens
Description: SANGER: Inhibition of human 23132-87 cell growth in a cell viability assay.

[30] = system: ABC-1; settings: Homo sapiens, ABC-1;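 note: growth inhibition of human ABC-1 cells, read out by a cell viability assay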
Description: SANGER: Inhibition of human ABC-1 cell growth in a cell viability assay.

[31] = system: AU565; settings: Homo sapiens, AU565;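 note: cell viability assay measuring growth inhibition of human AU565 cells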
Description: SANGER: Inhibition of human AU565 cell growth in a cell viability assay.

[32] = system: BEN; settings: Homo sapiens, BEN;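 note: growth inhibition of the BEN cell line, read out with a cell viability assay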
Description: SANGER: Inhibition of human BEN cell growth in a cell viability assay.

[33] = system: CAL-39; settings: Homo sapiens, CAL-39;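 note: cell viability assay measuring growth inhibition of CAL-39 cells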
Description: SANGER: Inhibition of human CAL-39 cell growth in a cell viability assay.

[34] = system: CAL-72; settings: Homo sapiens, CAL-72;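 note: cell viability assay measuring inhibition of proliferation in the CAL-72 cell line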
Description: SANGER: Inhibition of human CAL-72 cell growth in a cell viability assay.

[35] = system: U-118-MG; settings: Homo sapiens, U-118-MG
Description: SANGER: Inhibition of human U-118-MG cell growth in a cell viability assay.

[36] = system: UACC-62; settings: Homo sapiens, UACC-62;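 note: growth inhibition of human UACC-62 cells, read out by a cell viability assay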
Description: SANGER: Inhibition of human UACC-62 cell growth in a cell viability assay.

[37] = system: CAMA-1; settings: Homo sapiens, CAMA-1;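 note: growth inhibition of CAMA-1 cells, read out with a cell viability assay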
Description: SANGER: Inhibition of human CAMA-1 cell growth in a cell viability assay.

[38] = system: COLO-678; settings: Homo sapiens, COLO-678
Description: SANGER: Inhibition of human COLO-678 cell growth in a cell viability assay.

Compound	pIC50 [1]	pIC50 [2]	pIC50 [3]	pIC50 [4]	pIC50 [5]	pIC50 [6]	pIC50 [7]	pIC50 [8]	pIC50 [9]	pIC50 [10]	pIC50 [11]	pIC50 [12]	pIC50 [13]	pIC50 [14]	pIC50 [15]	pIC50 [16]	pIC50 [17]	pIC50 [18]	pIC50 [19]	pIC50 [20]	also measured
Nc1cccc2c1CN(C1CCC(=O)NC1=O)C2=O (configuration not stated) [LENALIDOMIDE]	< 5.30	< 5.30	< 5.30	< 5.30	< 5.30	< 5.30	< 5.30	< 5.30	< 5.30	< 5.30	< 5.30	< 5.30	< 5.30	< 5.30	< 5.30	< 5.30	< 5.30	< 5.30	< 5.30	< 5.30	pIC50 [21]: < 5.30; pIC50 [22]: < 5.30; pIC50 [23]: < 5.30; pIC50 [24]: < 5.30; pIC50 [25]: < 5.30; pIC50 [26]: < 5.30; pIC50 [27]: < 5.30; pIC50 [28]: < 5.30; pIC50 [29]: < 5.30; pIC50 [30]: < 5.30; pIC50 [31]: < 5.30; pIC50 [32]: < 5.30; pIC50 [33]: < 5.30; pIC50 [34]: < 5.30; pIC50 [35]: < 5.30; pIC50 [36]: < 5.30; pIC50 [37]: < 5.30; pIC50 [38]: < 5.30
Cc1cn(-c2cc(NC(=O)c3ccc(C)c(Nc4nccc(-c5cccnc5)n4)c3)cc(C(F)(F)F)c2)cn1 [NILOTINIB]	< 5.70	< 5.70	< 5.70	< 5.70	< 5.70	< 5.70	< 5.70	< 5.70	< 5.70	< 5.70	< 5.70	< 5.70	< 5.70	< 5.70	< 5.70	< 5.70	< 5.70	< 5.70	< 5.70	< 5.70	pIC50 [21]: < 5.70; pIC50 [22]: < 5.70; pIC50 [23]: < 5.70; pIC50 [24]: < 5.70; pIC50 [25]: < 5.70; pIC50 [26]: < 5.70; pIC50 [27]: < 5.70; pIC50 [28]: < 5.70; pIC50 [29]: < 5.70; pIC50 [30]: < 5.70; pIC50 [31]: < 5.70; pIC50 [32]: < 5.70; pIC50 [33]: < 5.70; pIC50 [34]: < 5.70; pIC50 [35]: < 5.70; pIC50 [36]: < 5.70; pIC50 [37]: < 5.70; pIC50 [38]: < 5.70
CO[C@H]1C[C@@H]2CC[C@@H](C)[C@@](O)(O2)C(=O)C(=O)N2CCCC[C@H]2C(=O)O[C@H]([C@H](C)C[C@@H]2CC[C@@H](OC(=O)C(C)(CO)CO)[C@H](OC)C2)CC(=O)[C@H](C)/C=C(\C)[C@@H](O)[C@@H](OC)C(=O)[C@H](C)C[C@H](C)/C=C/C=C/C=C/1C [TEMSIROLIMUS]	< 6.70	8.15	7.39	< 6.70	< 6.70	7.27	8.09	< 6.70	6.74	6.90	6.93	< 6.70	7.01	< 6.70	< 6.70	< 6.70	7.63	< 6.70	6.84	< 6.70	pIC50 [21]: 7.41; pIC50 [22]: < 6.70; pIC50 [23]: < 6.70; pIC50 [24]: 6.90; pIC50 [25]: < 6.70; pIC50 [26]: 6.72; pIC50 [27]: < 6.70; pIC50 [28]: < 6.70; pIC50 [29]: 7.19; pIC50 [30]: < 6.70; pIC50 [31]: < 6.70; pIC50 [32]: 7.50; pIC50 [33]: 7.40; pIC50 [34]: < 6.70; pIC50 [35]: 7.78; pIC50 [36]: < 6.70; pIC50 [37]: 8.32; pIC50 [38]: < 6.70
CS(=O)(=O)c1ccc(C(=O)Nc2ccc(Cl)c(-c3ccccn3)c2)c(Cl)c1 [VISMODEGIB]	< 5.00	< 5.00	< 5.00	< 5.00	< 5.00	< 5.00	< 5.00	< 5.00	< 5.00	< 5.00	< 5.00	< 5.00	< 5.00	< 5.00	< 5.00	< 5.00	< 5.00	< 5.00	< 5.00	< 5.00	pIC50 [21]: < 5.00; pIC50 [22]: < 5.00; pIC50 [23]: < 5.00; pIC50 [24]: < 5.00; pIC50 [25]: < 5.00; pIC50 [26]: < 5.00; pIC50 [27]: < 5.00; pIC50 [28]: < 5.00; pIC50 [29]: 5.36; pIC50 [30]: < 5.00; pIC50 [31]: < 5.00; pIC50 [32]: < 5.00; pIC50 [33]: < 5.00; pIC50 [34]: < 5.00; pIC50 [35]: < 5.00; pIC50 [36]: < 5.00; pIC50 [37]: < 5.00; pIC50 [38]: < 5.00
